# Patent US4864023A, “Pyrido(3,2,1-IJ)-1,3,4-benzoxadiazine derivatives” (priority 1988, dated 1989)
# Where two headings read alike, the source gives them in different places.
# Tests used:
# Test in all cases: in vitro antibacterial activity, standard agar dilution method
# Format in all cases: cell-based
# [1] = test system: Staphylococcus epidermidis IFO 12993; details: IFO12993, aerobic, read-out: minimum inhibitory concentration (MIC)
# [2] = test system: Salmonella typhimurium IFO 12529; details: Salmonella enterica, aerobic, read-out: minimum inhibitory concentration (MIC)
# [3] = test system: Enterobacter aerogenes NR 2945; details: Klebsiella aerogenes, NR2945, aerobic, read-out: minimum inhibitory concentration (MIC)
# [4] = test system: Staphylococcus aureus FDA 209P JC-1; details: FDA209P, read-out: minimum inhibitory concentration (MIC)
# [5] = test system: Escherichia coli NIHJ JC-2; details: NIHJJC2, aerobic, read-out: minimum inhibitory concentration (MIC)
# [6] = test system: Bordetella bronchiseptica ATCC 4617; details: ATCC4617, aerobic, read-out: minimum inhibitory concentration (MIC)
# Escherichia coli NR 2630 = details: NR2630; Escherichia coli NR 2630; aerobic; agar dilution; read-out: minimum inhibitory concentration (MIC)
# [7] = test system: Alcaligenes faecalis IFO 13111; details: IFO13111, aerobic, read-out: minimum inhibitory concentration (MIC)
# [8] = test system: Staphylococcus epidermidis NR 2942; details: NR2942, aerobic, read-out: minimum inhibitory concentration (MIC)
# [9] = test system: Bacillus subtilis PCI 219; details: PCI219, aerobic, read-out: minimum inhibitory concentration (MIC)
# [10] = test system: Citrobacter freundii IFO 12681; details: IFO12681, aerobic, read-out: minimum inhibitory concentration (MIC)
# [11] = test system: Staphylococcus aureus NR 2855; details: NR2855; Staphylococcus aureus NR 2855; aerobic; agar dilution; read-out: minimum inhibitory concentration (MIC)
# [12] = test system: Pseudomonas aeruginosa A3; details: aerobic, read-out: minimum inhibitory concentration (MIC)
# [13] = test system: Klebsiella pneumoniae FDA PCI 602; details: FDAPCI602, aerobic, read-out: minimum inhibitory concentration (MIC)
# [14] = test system: Enterococcus faecalis NR 2943; details: NR2943, aerobic, read-out: minimum inhibitory concentration (MIC)
# [15] = test system: Proteus rettgeri ATCC 14505; details: Providencia rettgeri, ATCC14505, aerobic, read-out: minimum inhibitory concentration (MIC)
# [16] = test system: Pseudomonas aeruginosa NR 2950; details: NR2950, aerobic, read-out: minimum inhibitory concentration (MIC)
# [17] = test system: Enterobacter cloacae NR 2946; details: NR2946, aerobic, read-out: minimum inhibitory concentration (MIC)
# [18] = test system: Serratia marcescens IFO 12648; details: IFO12648, aerobic, read-out: minimum inhibitory concentration (MIC)
# [19] = test system: Staphylococcus aureus Smith; details: read-out: minimum inhibitory concentration (MIC)
# [20] = test system: Proteus vulgaris OX19 ATCC 6898; details: ATCC6898, aerobic, read-out: minimum inhibitory concentration (MIC)
# [21] = Staphylococcus aureus FDA 209P JC-1, aerobic, agar dilution
# [22] = Staphylococcus aureus Smith, aerobic, agar dilution
Compound,MIC [1],MIC [2],MIC [3],"MIC [4, 21]",MIC [5],MIC [6],MIC (Escherichia coli NR 2630),MIC [7],MIC [8],MIC [9],MIC [10],MIC [11],MIC [12],MIC [13],MIC [14],MIC [15],MIC [16],MIC [17],MIC [18],MIC [20],also measured
"CN1COc2c(N3CCNC(=O)C3)c(F)cc3c(=O)c(C(=O)O)cn1c23 [Example 24, 9-fluoro-3-methyl-7-oxo-10-(3-oxo-1-piperazinyl)-2,3-dihydro-7H-pyrido[3,2,1-ij]-1,3,4-benzoxadiazine-6-carboxylic acid]",3.13 µg/mL,0.78 µg/mL,0.78 µg/mL,1.56 µg/mL,1.56 µg/mL,50 µg/mL,0.78 µg/mL,25 µg/mL,3.13 µg/mL,0.39 µg/mL,1.56 µg/mL,6.25 µg/mL,3.13 µg/mL,6.25 µg/mL,25 µg/mL,12.5 µg/mL,25 µg/mL,3.13 µg/mL,6.25 µg/mL,0.39 µg/mL,"MIC [19, 22]: 1.56 µg/mL"
CCNC1CCN(c2c(F)cc3c(=O)c(C(=O)O)cn4c3c2OCN4C)CC1 [Example 35],0.78 µg/mL,0.1 µg/mL,0.1 µg/mL,,0.1 µg/mL,12.5 µg/mL,0.1 µg/mL,25 µg/mL,0.78 µg/mL,0.05 µg/mL,0.2 µg/mL,1.56 µg/mL,1.56 µg/mL,1.56 µg/mL,6.25 µg/mL,3.13 µg/mL,12.5 µg/mL,0.39 µg/mL,1.56 µg/mL,0.05 µg/mL,MIC ([4]; Staphylococcus aureus): 0.39 µg/mL; MIC ([19]; Staphylococcus aureus): 0.39 µg/mL
"CC(=O)CN1CCN(c2c(F)cc3c(=O)c(C(=O)O)cn4c3c2OCN4C)CC1 [Example 40, 9-fluoro-3-methyl-7-oxo-10-[4-(2-oxo-n-propyl)-1-piperazinyl]-2,3-dihydro-7H-pyrido[3,2,1-ij]-1,3,4-benzoxadiazine-6-carboxylic acid]",1.56 µg/mL,0.39 µg/mL,0.1 µg/mL,1.56 µg/mL,0.39 µg/mL,1.56 µg/mL,0.2 µg/mL,6.25 µg/mL,0.78 µg/mL,0.1 µg/mL,0.2 µg/mL,0.78 µg/mL,1.56 µg/mL,1.56 µg/mL,12.5 µg/mL,3.13 µg/mL,12.5 µg/mL,0.39 µg/mL,1.56 µg/mL,0.2 µg/mL,"MIC [19, 22]: 0.78 µg/mL"
CN1COc2c(N3CCN(CC(=O)c4ccccc4)CC3)c(F)cc3c(=O)c(C(=O)O)cn1c23 [Example 41],6.25 µg/mL,0.78 µg/mL,0.1 µg/mL,6.25 µg/mL,0.78 µg/mL,25 µg/mL,0.39 µg/mL,50 µg/mL,12.5 µg/mL,3.13 µg/mL,0.39 µg/mL,6.25 µg/mL,3.13 µg/mL,3.13 µg/mL,100 µg/mL,3.13 µg/mL,12.5 µg/mL,0.78 µg/mL,3.13 µg/mL,1.56 µg/mL,"MIC [19, 22]: 6.25 µg/mL"
CCCN1CCN(c2c(F)cc3c(=O)c(C(=O)O)cn4c3c2OCN4C)CC1 [Example 43],0.39 µg/mL,0.1 µg/mL,0.1 µg/mL,0.78 µg/mL,0.1 µg/mL,0.39 µg/mL,0.05 µg/mL,0.78 µg/mL,0.39 µg/mL,0.1 µg/mL,0.1 µg/mL,0.78 µg/mL,0.78 µg/mL,0.39 µg/mL,6.25 µg/mL,0.78 µg/mL,6.25 µg/mL,0.1 µg/mL,0.2 µg/mL,0.1 µg/mL,"MIC [19, 22]: 0.39 µg/mL"
"CN1COc2c(N3CCN(C(=O)CCC(=O)O)CC3)c(F)cc3c(=O)c(C(=O)O)cn1c23 [Example 49, 10-[4-(3-carboxypropionyl)-1-piperazinyl]-9-fluoro-3-methyl-7-oxo-2,3-dihydro-7H-pyrido[3,2,1-ij]-1,3,4-benzoxadiazine-6-carboxylic acid]",12.5 µg/mL,0.39 µg/mL,0.39 µg/mL,6.25 µg/mL,1.56 µg/mL,50 µg/mL,0.39 µg/mL,100 µg/mL,12.5 µg/mL,3.13 µg/mL,0.39 µg/mL,12.5 µg/mL,3.13 µg/mL,1.56 µg/mL,100 µg/mL,3.13 µg/mL,50 µg/mL,0.78 µg/mL,3.13 µg/mL,0.78 µg/mL,"MIC [19, 22]: 6.25 µg/mL"

# The next lines start with results.
MIC [1],MIC [2],MIC [3],"MIC [4, 21]",MIC [5],MIC [6],MIC (Escherichia coli NR 2630),MIC [7],MIC [8],MIC [9],MIC [10],MIC [11],MIC [12],MIC [13],MIC [14],MIC [15],MIC [16],MIC [17],MIC [18],MIC [20],Compound,also measured
0.39 µg/mL,0.2 µg/mL,0.2 µg/mL,0.1 µg/mL,0.2 µg/mL,6.25 µg/mL,0.1 µg/mL,50 µg/mL,0.39 µg/mL,0.1 µg/mL,0.78 µg/mL,0.78 µg/mL,0.78 µg/mL,3.13 µg/mL,3.13 µg/mL,12.5 µg/mL,12.5 µg/mL,0.78 µg/mL,3.13 µg/mL,0.1 µg/mL,CN1COc2c(N3CCC(CN)CC3)c(F)cc3c(=O)c(C(=O)O)cn1c23 [Example 12],"MIC [19, 22]: 0.1 µg/mL"
0.78 µg/mL,0.1 µg/mL,0.05 µg/mL,0.2 µg/mL,0.2 µg/mL,25 µg/mL,0.1 µg/mL,50 µg/mL,0.78 µg/mL,0.2 µg/mL,0.2 µg/mL,1.56 µg/mL,0.39 µg/mL,0.78 µg/mL,3.13 µg/mL,1.56 µg/mL,6.25 µg/mL,0.2 µg/mL,0.78 µg/mL,0.05 µg/mL,CN1COc2c(N3CCC(N)CC3)c(F)cc3c(=O)c(C(=O)O)cn1c23 [Example 33],"MIC [19, 22]: 0.2 µg/mL"
0.78 µg/mL,0.1 µg/mL,0.1 µg/mL,0.2 µg/mL,0.2 µg/mL,25 µg/mL,0.1 µg/mL,50 µg/mL,0.78 µg/mL,0.05 µg/mL,0.2 µg/mL,1.56 µg/mL,0.78 µg/mL,0.78 µg/mL,6.25 µg/mL,3.13 µg/mL,6.25 µg/mL,0.2 µg/mL,0.78 µg/mL,0.05 µg/mL,CNC1CCN(c2c(F)cc3c(=O)c(C(=O)O)cn4c3c2OCN4C)CC1 [Example 34],"MIC [19, 22]: 0.2 µg/mL"
0.39 µg/mL,0.2 µg/mL,0.05 µg/mL,0.39 µg/mL,0.78 µg/mL,0.78 µg/mL,0.025 µg/mL,6.25 µg/mL,0.39 µg/mL,0.025 µg/mL,0.78 µg/mL,0.78 µg/mL,3.13 µg/mL,1.56 µg/mL,12.5 µg/mL,3.13 µg/mL,12.5 µg/mL,0.78 µg/mL,1.56 µg/mL,0.05 µg/mL,"CN1COc2c(N3CCS(=O)(=O)CC3)c(F)cc3c(=O)c(C(=O)O)cn1c23 [Example 39, 10-(1,1-dioxide-4-thiomorpholinyl)-9-fluoro-3-methyl-7-oxo-2,3-dihydro-7H-pyrido[3,2,1-ij]-1,3,4-benzoxadiazine-6-carboxylic acid]","MIC [19, 22]: 0.39 µg/mL"
0.78 µg/mL,0.1 µg/mL,0.1 µg/mL,0.78 µg/mL,0.1 µg/mL,0.39 µg/mL,0.05 µg/mL,1.56 µg/mL,0.39 µg/mL,0.05 µg/mL,0.1 µg/mL,0.39 µg/mL,1.56 µg/mL,0.78 µg/mL,6.25 µg/mL,1.56 µg/mL,6.25 µg/mL,0.2 µg/mL,0.39 µg/mL,0.05 µg/mL,C=CCN1CCN(c2c(F)cc3c(=O)c(C(=O)O)cn4c3c2OCN4C)CC1 [Example 46],"MIC [19, 22]: 0.39 µg/mL"
